Measurements published in ChEMBL document CHEMBL1132905, “Synthesis of glycosylated polyethylenimine with reduced toxicity and high transfecting efficiency” (Bioorg Med Chem Lett, 2000).

Assay: Lethal dose against HeLa cells, from a human cervix epitheloid carcinoma
Assay type: toxicity, cell-based
Conditions: read-out: LD50 (the source's name)

CCN(CCNC)CCNC[C@H](O)[C@@H](O)[C@H](O[C@@H]1O[C@H](CO)C(O)[C@H](O)[C@H]1O)[C@H](O)CO (stereo partly specified) [GLYCOSYLATED PEI]
CC50: > 300 µM
